Laboratory results as given in patent publication US12410160B2 (Gilead Sciences, Inc., priority 2021, dated 2025).
Read-outs that look alike come from different tables or passages of the source.

Legend:
[1] = target: KHK-C expressed in NRK-52E cells (Homo sapiens (Human), UniProt P50053); assay: KHK-C Cell-based Assay (EC50), NRK CTG, fructose-mediated ATP-depletion
[2] = target: human KHK-A (Homo sapiens (Human), UniProt P50053); assay: KHK Biochemical Assay (IC50), ADP-Glo, KHK-A; details: average of at least two separate assays
Outline: (§1)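 His-tagged enzyme expressed in BL21 (DE3), Ni-NTA purified. Compounds, serially diluted 1:3 in DMSO, pre-incubated 30 min with enzyme in 50 mM Hepes pH 7.4, 140 mM KCl, 5 mM MgCl2, 0.01% Triton-X, then ATP and fructose added; 4 h at room temperature. ADP formation read by ADP-Glo luminescence.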

[3] = target: human KHK-C (Homo sapiens (Human), UniProt P50053); assay: KHK Biochemical Assay (IC50), ADP-Glo, KHK-C; details: average of at least two separate assays
Outline: as §1

[4] = system: HepG2 cells; assay: F1P Cell-Based Assay (EC50), 13C6-fructose-1-phosphate in HepG2 cells (cell culture medium or 50% human plasma)
[5] = HepG2 cells, 50% human plasma, read-out: F1P 50% HP EC50
[6] = read-out: F1P 10% FBS EC50, HepG2 cells, cell culture medium (10% FBS)
[7] = Homo sapiens, HepG2, HepG2 cells, 50% human plasma, read-out: F1P 50% HP EC50
[8] = Homo sapiens, HepG2, read-out: F1P 10% FBS EC50, HepG2 cells, cell culture medium (10% FBS)

Chain of human KHK-C (P50053 whole entry): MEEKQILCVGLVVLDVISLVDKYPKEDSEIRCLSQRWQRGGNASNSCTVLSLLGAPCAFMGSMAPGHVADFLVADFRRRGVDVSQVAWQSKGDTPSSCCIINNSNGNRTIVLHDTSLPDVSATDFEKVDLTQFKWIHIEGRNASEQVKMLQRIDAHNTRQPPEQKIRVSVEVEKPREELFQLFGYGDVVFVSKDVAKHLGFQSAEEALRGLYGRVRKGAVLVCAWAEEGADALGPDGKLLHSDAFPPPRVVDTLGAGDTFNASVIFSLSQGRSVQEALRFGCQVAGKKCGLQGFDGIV
Chain of KHK-C expressed in NRK-52E cells (P50053 whole entry): as above
Chain of human KHK-A (P50053 other isoform, or with tags, fused parts or gaps): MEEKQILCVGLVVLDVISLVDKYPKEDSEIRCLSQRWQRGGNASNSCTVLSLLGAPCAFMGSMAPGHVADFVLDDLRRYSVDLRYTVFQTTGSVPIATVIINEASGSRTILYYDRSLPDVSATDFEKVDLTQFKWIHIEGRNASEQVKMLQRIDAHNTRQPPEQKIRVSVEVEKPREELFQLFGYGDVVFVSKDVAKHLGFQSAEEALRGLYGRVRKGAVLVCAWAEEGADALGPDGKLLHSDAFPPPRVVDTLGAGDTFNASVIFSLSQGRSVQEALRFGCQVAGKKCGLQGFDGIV

IC50 [3] [nM] | EC50 [4, 7] [nM] | EC50 [4, 8] [nM] | IC50 ([3]; ADP-Glo) [nM] | SMILES | further results
– | – | – | – | C[C@H]1[C@H](CO)CN1c1nc2c(c(-c3ccc(C(N)=O)cc3)n1)CCC2 (racemic) [Example 267, (rac)-4-(2-((2S*,3R*)-3-(hydroxymethyl)-2-methylazetidin-1-yl)-6,7-dihydro-5H-cyclopenta[d]pyrimidin-4-yl)benzamide] | EC50 [1]: > 5000 nM
1 | – | – | – | COc1ccc(-c2nc(N3C[C@@H](O)[C@@H]3C)nc3c2CCC3(F)F)cc1[S@@](=N)(=O)C1CC1 (single isomer, unassigned) [Example 539] | IC50 [2]: 0.4 nM; EC50 [4, 5]: 8.9 nM; EC50 [4, 6]: 2 nM
1.1 | 27.5 | 14.9 | – | C[C@H]1[C@H](O)CN1c1nc(-c2ccc3c(c2)OCC[C@@H]3NS(C)(=O)=O)c2c(n1)C(F)(F)CC2 (single isomer, unassigned) [Example 787] | IC50 [2]: 7 nM
2.5 | – | – | – | C[C@H]1[C@H](F)CN1c1nc(-c2ccc([C@H](N)CS(C)(=O)=O)cc2)c2c(n1)C(F)(F)CC2 (single isomer, unassigned) [Example 788] | IC50 [2]: 6 nM; EC50 [4, 5]: 76.5 nM; EC50 [4, 6]: 18.6 nM
– | 78.4 | 25.2 | 2.5 | C[C@H]1[C@H](O)CN1c1nc(-c2cc(F)c3c(c2)OC[C@@H]3NS(C)(=O)=O)c2c(n1)C(F)(F)CC2 (single isomer, unassigned) [Example 813] | IC50 ([2]; ADP-Glo): 34.7 nM
2.5 | 22.5 | 10.7 | – | C[C@H]1[C@@H](F)CN1c1nc(-c2ccc(C3(N)COC3)cc2)c2c(n1)C(F)(F)CC2 (stereo in doubt) [Example 469, 3-(4-(7,7-difluoro-2-((28,38)-3-fluoro-2-methylazetidin-1-yl)-6,7-dihydro-5H-cyclopenta[d]pyrimidin-4-yl)phenyl)oxetan-3-amine] | IC50 [2]: 6.7 nM
– | – | – | – | C[C@H]1[C@H](F)CN1c1nc2c(c(-c3ccc4c(c3)C(=O)N(C)C4)n1)CCC2 [Example 203, 6-[2-[(2S,3R)-3-fluoro-2-methyl-azetidin-1-yl]-6,7-dihydro-5H-cyclopenta[d]pyrimidin-4-yl]-2-methyl-isoindolin-1-one] | EC50 [1]: 59.5 nM
– | – | – | – | C[C@H]1CCN1c1nc2c(c(-c3ccc4c(c3)C(=O)N(C)C4)n1)CCC2 [Example 206, 2-methyl-6-[2-[(2S)-2-methylazetidin-1-yl]-6,7-dihydro-5H-cyclopenta[d]pyrimidin-4-yl]isoindolin-1-one] | EC50 [1]: 26.6 nM
– | – | – | – | C[C@H]1CCN1c1nc(-c2cccc(C(N)=O)c2)c2c(n1)C1CC1C2 (stereo partly drawn) [Example 272, 3-(2-((S)-2-methylazetidin-1-yl)-5,5a,6,6a-tetrahydrocyclopropa[4,5]cyclopenta[1,2-d]pyrimidin-4-yl)benzamide] | EC50 [1]: 635 nM
– | – | – | – | C[C@H]1CCN1c1nc2c(c(-c3ccc(C4(NS(C)(=O)=O)CC4)cc3)n1)CCC2 [Example 306, (S)—N-(1-(4-(2-(2-methylazetidin-1-yl)-6,7-dihydro-5H-cyclopenta[d]pyrimidin-4-yl)phenyl)cyclopropyl)methanesulfonamide] | EC50 [1]: 450 nM
0.2 | 8.3 | 6 | – | C[C@H]1[C@H](O)CN1c1nc(-c2ccc3c(c2)CC[C@]32NC(=O)NC2=O)c2c(n1)C(F)(F)CC2 [Example 486, (S)-5′-(7,7-difluoro-2-((2S,3R)-3-hydroxy-2-methylazetidin-1-yl)-6,7-dihydro-5H-cyclopenta[d]pyrimidin-4-yl)-2′,3′-dihydrospiro[imidazolidine-4,1′-indene]-2,5-dione] | IC50 [2]: 1.7 nM
1.8 | 86.6 | 32.5 | – | C[C@H]1[C@H](O)CN1c1nc(-c2cc(F)c3c(c2)CCC3NS(C)(=O)=O)c2c(n1)C(F)(F)CC2 (stereo partly drawn) [Example 525, N-(5-(7,7-difluoro-2-((2S,3R)-3-hydroxy-2-methylazetidin-1-yl)-6,7-dihydro-5H-cyclopenta[d]pyrimidin-4-yl)-7-fluoro-2,3-dihydro-1H-inden-1-yl)methanesulfonamide] | IC50 [2]: 29.8 nM
1 | 24.7 | 2.4 | – | CS(=O)(=O)N[C@H]1COc2cc(-c3nc(N4CC[C@@H]4C(F)F)nc4c3CCC4(F)F)ccc21 [Example 545, N—((R)-6-(2-((R)-2-(difluoromethyl)azetidin-1-yl)-7,7-difluoro-6,7-dihydro-5H-cyclopenta[d]pyrimidin-4-yl)-2,3-dihydrobenzofuran-3-yl)methanesulfonamide] | IC50 [2]: 4 nM
6.3 | 130 | 135 | – | NC1(c2ccc(-c3nc(N4CC(F)(F)C4CO)nc4c3CCC4(F)F)cc2)CS(=O)(=O)C1 (stereo not shown) [Example 782, 3-amino-3-(4-(2-(3,3-difluoro-2-(hydroxymethyl)azetidin-1-yl)-7,7-difluoro-6,7-dihydro-5H-cyclopenta[d]pyrimidin-4-yl)phenyl)thietane 1,1-dioxide] | –
0.7 | 23.7 | 15.2 | – | C[C@H]1[C@@H](F)CN1c1nc(-c2ccc(C3(N)CS(=O)(=O)C3)cc2)c2c(n1)C(F)(F)CC2 [Example 785] | –
6.1 | – | – | – | C[C@H]1[C@H](O)CN1c1nc([C@H]2CC(NS(C)(=O)=O)c3ccccc3O2)c2c(n1)C(F)(F)CC2 (stereo partly drawn) [Example 786, N—((R)-(7,7-difluoro-2-((2S,3R)-3-hydroxy-2-methylazetidin-1-yl)-6,7-dihydro-5H-cyclopenta[d]pyrimidin-4-yl)chroman-4-yl)methanesulfonamide] | EC50 [4, 5]: 97.6 nM; EC50 [4, 6]: 58 nM
14.2 | 104 | 29 | – | C[C@H]1CCN1c1nc(-c2cccc(C3(N)CS(=O)(=O)C3)c2)c2c(n1)C(F)(F)CC2 [Example 790, (S)-3-amino-3-(3-(7,7-difluoro-2-(2-methylazetidin-1-yl)-6,7-dihydro-5H-cyclopenta[d]pyrimidin-4-yl)phenyl)thietane 1,1-dioxide] | –
80.5 | > 500 | 316 | – | N#CCC1CCN1c1nc(-c2ccc3c(c2)S(=O)(=O)CCNC3)c2c(n1)C(F)(F)CC2 (stereo not shown) [Example 791, 2-(1-(4-(1,1-dioxido-2,3,4,5-tetrahydrobenzo[f][1,4]thiazepin-8-yl)-7,7-difluoro-6,7-dihydro-5H-cyclopenta[d]pyrimidin-2-yl)azetidin-2-yl)acetonitrile] | –
2.2 | 140 | 57.7 | – | CS(=O)(=O)N[C@H]1COc2cc(-c3nc(N4CC(F)(F)C4CO)nc4c3CCC4(F)F)ccc21 (stereo partly drawn) [Example 792, N-((3R)-6-(2-(3,3-difluoro-2-(hydroxymethyl)azetidin-1-yl)-7,7-difluoro-6,7-dihydro-5H-cyclopenta[d]pyrimidin-4-yl)-2,3-dihydrobenzofuran-3-yl)methanesulfonamide] | –
– | 75.5 | 55.6 | 4.8 | C[C@H]1[C@H](O)CN1c1nc(-c2ccc(C3(N)CCS(=O)(=O)C3)cc2)c2c(n1)C(F)(F)CC2 (stereo partly shown) [Example 793] | –
– | 99.4 | 35.2 | 15.7 | C[C@H]1[C@H](O)CN1c1nc(-c2ccc3c(c2)C(F)(F)CNC3)c2c(n1)C(F)(F)CC2 [Example 807, (2S,3R)-1-[4-(4,4-difluoro-2,3-dihydro-1H-isoquinolin-6-yl)-7,7-difluoro-5,6-dihydrocyclopenta[d]pyrimidin-2-yl]-2-methyl-azetidin-3-ol] | –
– | 179 | 110 | 24.8 | CC(=O)NC1COc2cc(-c3nc(N4C[C@@H](O)[C@@H]4C)nc4c3CCC4(F)F)cc(F)c21 (stereo partly shown) [Example 809] | –
– | > 500 | 206 | 34.9 | C[C@H]1[C@H](O)CN1c1nc(-c2ccc3c(c2)CCC3(C)NS(C)(=O)=O)c2c(n1)C(F)(F)CC2 (stereo partly drawn) [Example 810, N-[5-[7,7-difluoro-2-[(2S,3R)-3-hydroxy-2-methyl-azetidin-1-yl]-5,6-dihydrocyclopenta[d]pyrimidin-4-yl]-1-methyl-indan-1-yl]methanesulfonamide] | –
– | 343 | 127 | 5.2 | COC(=O)NC1COc2cc(-c3nc(N4C[C@@H](O)[C@@H]4C)nc4c3CCC4(F)F)cc(F)c21 (stereo partly drawn) [Example 811, methyl (6-(7,7-difluoro-2-((2S,3R)-3-hydroxy-2-methylazetidin-1-yl)-6,7-dihydro-5H-cyclopenta[d]pyrimidin-4-yl)-4-fluoro-2,3-dihydrobenzofuran-3-yl)carbamate] | –
– | 67.1 | 39.7 | 5.9 | C[C@H]1[C@H](O)CN1c1nc(-c2cc(F)c3c(c2)OCC3NS(C)(=O)=O)c2c(n1)C(F)(F)CC2 (stereo partly drawn) [Example 817, N-(6-(7,7-difluoro-2-((2S,3R)-3-hydroxy-2-methylazetidin-1-yl)-6,7-dihydro-5H-cyclopenta[d]pyrimidin-4-yl)-4-fluoro-2,3-dihydrobenzofuran-3-yl)methanesulfonamide] | –
– | 158 | 16.9 | 5.8 | C[C@H]1CCN1c1nc(-c2ccc3c(c2)CCNC3C(F)F)c2c(n1)C(F)(F)CC2 (stereo partly drawn) [Example 836, 6-(7,7-difluoro-2-((S)-2-methylazetidin-1-yl)-6,7-dihydro-5H-cyclopenta[d]pyrimidin-4-yl)-1-(difluoromethyl)-1,2,3,4-tetrahydroisoquinoline] | –
